Source: patent US20260374773A1, “MULTI-CYCLIC IRAK AND FLT3 INHIBITING COMPOUNDS AND USES THEREOF” (CHILDREN'S HOSPITAL MEDICAL CENTER, priority 2022, published 2026)

These compounds were tested against T1, FLT3 N841I (Homo sapiens, UniProt P36888, N841I) (assay: DiscoverX KINOMEscan active site-directed competition binding, FLT3 N841I). Conditions: Table 13; no ATP.
T1 sequence (P36888 27-993 N841I): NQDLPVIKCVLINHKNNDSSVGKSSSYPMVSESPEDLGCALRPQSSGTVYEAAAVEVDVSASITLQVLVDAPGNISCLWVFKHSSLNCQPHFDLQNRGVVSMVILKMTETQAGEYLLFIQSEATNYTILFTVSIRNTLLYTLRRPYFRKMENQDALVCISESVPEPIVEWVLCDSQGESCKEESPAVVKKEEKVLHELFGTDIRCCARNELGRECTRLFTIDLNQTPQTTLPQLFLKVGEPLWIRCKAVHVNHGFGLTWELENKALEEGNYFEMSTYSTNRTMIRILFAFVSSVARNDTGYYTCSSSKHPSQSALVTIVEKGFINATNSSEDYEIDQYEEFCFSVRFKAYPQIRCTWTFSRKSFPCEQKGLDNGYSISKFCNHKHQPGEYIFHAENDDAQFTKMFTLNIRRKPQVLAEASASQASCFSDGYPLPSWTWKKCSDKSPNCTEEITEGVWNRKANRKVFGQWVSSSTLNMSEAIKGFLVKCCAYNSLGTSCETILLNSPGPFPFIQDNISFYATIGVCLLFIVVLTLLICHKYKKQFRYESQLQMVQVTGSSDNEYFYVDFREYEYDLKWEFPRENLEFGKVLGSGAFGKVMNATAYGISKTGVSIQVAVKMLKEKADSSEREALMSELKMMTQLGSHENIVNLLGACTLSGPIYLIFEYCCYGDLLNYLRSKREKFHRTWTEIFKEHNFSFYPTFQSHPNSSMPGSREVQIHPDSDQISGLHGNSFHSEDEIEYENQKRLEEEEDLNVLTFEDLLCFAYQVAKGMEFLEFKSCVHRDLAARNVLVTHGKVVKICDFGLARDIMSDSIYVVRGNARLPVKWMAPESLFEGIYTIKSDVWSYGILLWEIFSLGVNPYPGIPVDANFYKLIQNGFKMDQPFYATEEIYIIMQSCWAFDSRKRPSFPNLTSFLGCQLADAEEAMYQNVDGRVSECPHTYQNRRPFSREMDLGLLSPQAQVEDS
Source text: (§1) Kinase binding data were obtained for various exemplary compounds prepared according to Examples 1-8 using the DiscoverX KINOMEscan® active site-directed competition binding site-directed assay protocol described below. […] As a result, the data report thermodynamic interaction affinities (Kd values), rather than IC50 values that are dependent on ATP concentrations. The assay uses a DNA-tagged version of the protein kinase, and an immobilized ligand bound to a solid support. Compounds that directly or indirectly prevent kinase binding to the immobilized ligand reduce the amount of kinase captured on the solid support, which is detected using an ultra-sensitive qPCR method. Affinity constants reported from the assay have been reported to be independent of the immobilized ligand used that is coupled to the solid support (See supplemental information in Fabian, M. A. et. al., (2005) Nat. Biotechnol. 23, 329-336; Wodicka, L. M. et. al., (2010) Chem. Biol. 17, 1241-1249.)
Kinase-tagged T7 phage strains were prepared in an E. coli host derived from the BL21 strain. E. coli were grown to log-phase and infected with T7 phage and incubated with shaking at 32 °C until lysis. The lysates were centrifuged and filtered to remove cell debris. The remaining kinases were produced in HEK-293 cells and subsequently tagged with DNA for qPCR detection. Streptavidin-coated magnetic beads were treated with biotinylated small molecule ligands for 30 minutes at room temperature to generate affinity resins for kinase assays. The liganded beads were blocked with excess biotin and washed with blocking buffer (SeaBlock (Pierce), 1% BSA, 0.05% Tween 20, 1 mM DTT) to remove unbound ligand and to reduce non-specific binding. […] Test compounds were prepared as 111x stocks in 100% DMSO. Kds were determined using an 11-point 3-fold compound dilution series with three DMSO control points. All compounds for Kd measurements are distributed by acoustic transfer (non-contact dispensing) in 100% DMSO. The compounds were then diluted directly into the assays such that the final concentration of DMSO was 0.9%. All reactions were performed in polypropylene 384-well plates. Each was a final volume of 0.02 mL. The assay plates were incubated at room temperature with shaking for 1 hour and the affinity beads were washed with wash buffer (1×PBS, 0.05% Tween 20). The beads were then re-suspended in elution buffer (1×PBS, 0.05% Tween 20, 0.5 μM nonbiotinylated affinity ligand) and incubated at room temperature with shaking for 30 minutes. The kinase concentration in the eluates was measured by qPCR. Binding constants (Kds) were calculated with a standard dose-response curve using the Hill equation. The Hill Slope was set to −1. Curves were fitted using a non-linear least square fit with the Levenberg-Marquardt algorithm.
as §1, with “9-12” for “1-8”
Kinase-tagged T7 phage strains were prepared in an E. coli host derived from the BL21 strain. […]

Which Kd does the source give for `COc1cn2ncc(-c3nc(N[C@H]4CNCC[C@@H]4F)c(C#N)cc3F)c2nc1C1CC1` [Compound 7, 6-(5-cyclopropyl-6-methoxypyrazolo[1,5-a]pyrimidin-3-yl)-5-fluoro-2-(((3S,4S)-4-fluoropiperidin-3-yl)amino)nicotinonitrile] here?
Its Kd is under 0.17 nM.

`COc1cn2ncc(-c3nc(N[C@H]4CNCC[C@@H]4F)c(C#N)cc3F)c2nc1C(C)(C)O` [Compound 10, 5-fluoro-2-(((3S,4S)-4-fluoropiperidin-3-yl)amino)-6-(5-(2-hydroxypropan-2-yl)-6-methoxypyrazolo[1,5-a]pyrimidin-3-yl)nicotinonitrile] was tested. Which Kd did it give?
Its Kd is 0.48 nM.

`COc1cn2ncc(-c3nc(N[C@H]4CNCC[C@@H]4F)c(F)cc3F)c2nc1C(C)(C)O` [Compound 13, 2-(3-(3,5-difluoro-6-(((3S,4S)-4-fluoropiperidin-3-yl)amino)pyridin-2-yl)-6-methoxypyrazolo[1,5-a]pyrimidin-5-yl)propan-2-ol] was tested. Which Kd did it give?
The Kd was 0.79 nM.

Same assay, conditions: Table 19; no ATP

Which Kd does the source give for `COc1cn2ncc(-c3nc(N[C@H]4CNCC[C@@H]4F)ncc3F)c2nc1C(C)(C)O` [Compound 6a, 2-(3-(5-fluoro-2-(((3S,4S)-4-fluoropiperidin-3-yl)amino)pyrimidin-4-yl)-6-methoxypyrazolo[1,5-a]pyrimidin-5-yl)propan-2-ol] here?
Its Kd is 0.7 nM.

Which Kd does the source give for `COc1cn2ncc(-c3ccnc(N[C@H]4CNCC[C@@H]4F)n3)c2nc1C1CC1` [Compound 7a, 4-(5-cyclopropyl-6-methoxypyrazolo[1,5-a]pyrimidin-3-yl)-N-((3S,4S)-4-fluoropiperidin-3-yl)pyrimidin-2-amine] here?
Its Kd is 0.62 nM.

With `COc1cn2ncc(-c3cncc(N[C@H]4CNCC[C@@H]4F)n3)c2nc1C1CC1` [Compound 12a, 6-(5-cyclopropyl-6-methoxypyrazolo[1,5-a]pyrimidin-3-yl)-N-((3S,4S)-4-fluoropiperidin-3-yl)pyrazin-2-amine] as the compound, how does the Kd read?
Its Kd is 0.27 nM.

With `COc1cn2ncc(-c3nc(N[C@@H]4CCCNC4)ncc3F)c2nc1C1CC1` [Compound 14a, (R)-4-(5-cyclopropyl-6-methoxypyrazolo[1,5-a]pyrimidin-3-yl)-5-fluoro-N-(piperidin-3-yl)pyrimidin-2-amine] as the compound, how does the Kd read?
Its Kd is under 0.17 nM.

Which Kd does the source give for `COc1cn2ncc(-c3nc(N[C@H]4CNCC[C@@H]4F)ncc3F)c2nc1C1CC1` [Compound 15a, 4-(5-cyclopropyl-6-methoxypyrazolo[1,5-a]pyrimidin-3-yl)-5-fluoro-N-((3S,4S)-4-fluoropiperidin-3-yl)pyrimidin-2-amine] here?
The Kd was under 0.17 nM.
